Measurements from patent US20080077999A1, “Using Nonhuman Animal Model, Method of Measuring Transcription Activity Method of Measuring Cell Quantity and Method of Measuring Tumor Volume” (Eisai R&D Management Co., Ltd., priority 2004, published 2008).

Columns and labels:
[1] = tested on: transcriptional activity through STAT6 activation by IL4 stimulation; experiment: Test of inhibitory action in mouse air pouch model introduced with E9 cells (blood PLAP activity after IL4 stimulation); type: in vivo, CDF1 mouse; settings: orally administered 20 mg/kg, 1 hour before IL4 injection into air pouch; plasma 24 hours after IL4
Experimental: 5% cytodex3 (Amersham Bioscience, 17-0485-01) solution and 2% CMC solution (Daiichi Kogyo Seiyaku Co., Ltd.) were prepared. More specifically, 5 g of cytodex3 was suspended in 100 ml of PBS (SIGMA, R8537) and sterilized by autoclaving. On the other hand, the 2% CMC solution was prepared by adding 2 g of CMC in 100 ml of PBS while stirring with a stirrer bar and followed by sterilization by autoclaving.
Then, E9 cells were subjected to trypsin-EDTA treatment to be removed from the wall of the vessel and the cells were suspended in DMEM to make 1.0×10^6 cells/ml. 0.2 g of cytodex3 was mixed with 1.0×10^7 cells/ml of E9 cells. More specifically, 4 ml of 5% cytodex3 solution was mixed with 10 ml of 1.0×10^6 cells/ml of cell suspension. Then, the cell/cytodex3 suspension was inoculated on a non-tissue culture plate (IWAKI, SH90-15) and cultured in a CO2 incubator. […]
After 24 hours, orbital blood drawing was conducted using a heparin-treated Terumo hematocrit capillary tube (TERUMO Corporation, VC-H075H). […] To inactivate endogenous alkaline phosphatase, the plasma sample was treated in a hot water bath at 65° C. for 10 minutes and then PLAP activity derived from E9 cells in the plasma was measured. […] Subsequently, while shielding light, the mixture was incubated at room temperature for 1 hour, followed by measurement of intensity of chemiluminescence using a plate reader (Perkin Elmer, ARVO).

[2] = tested on: transcriptional activity through STAT6 activation by IL4 stimulation; settings: in vitro; cited from earlier work
[3] = tested on: E9 cell (HEK293 with STAT6-PLAP reporter plasmid and STAT6-expression vector plasmid); experiment: PLAP activity in culture supernatant of cells stably expressing STAT6-PLAP reporter plasmid and STAT6 expression vector plasmid upon human IL4 stimulation; type: cell-based; settings: human IL4 final concentration 1 ng/ml, next day
Experimental: More specifically, the cloned cell was subjected to trypsin-EDTA treatment to be removed from the wall of the vessel and suspended in DMEM and cells were inoculated on a 96-well cell culture plate to be 1.0×10^4 cells/190 μl/well. On the next day, 10 μl of 20 ng/ml human IL4 (Calbiochem, 407635) was added to the culture medium at a final concentration of 1 ng/ml. On the next day, the culture supernatant was recovered and the PLAP activity in the culture supernatant was measured.
More specifically, 100 μl of PLAP buffer (0.28 M Na2CO3—NaHCO3 pH 10.0, 8 mM MgSO4) was added to a black plate for ELISA (Sumitomo Bakelite Co., Ltd., No. MS-8496K), and 10 μl of the culture supernatant which had been treated in a hot water bath at 65° C. for 10 minutes was added thereto. Then, 50 μl of Lumi-Phos 530 (Lumigen, Inc.) was added, followed by mixing. Subsequently, while shielding light, the mixture was incubated at room temperature for 1 hour, followed by measurement of intensity of chemiluminescence using a plate reader (Perkin Elmer, ARVO). […] Hereinafter, this clone is named E9 cell.

[4] = tested on: E9 cells (STAT6-PLAP reporter); experiment: Mouse air pouch model introduced with E9 cells: plasma PLAP activity upon human IL4 stimulation; type: in vivo, CDF1 mouse; settings: 1 ml of 3 ng/ml human IL4 injected into air pouch, plasma after 24 hours
Experimental: 5% cytodex3 (Amersham Bioscience, 17-0485-01) solution and 2% carboxymethylcellulose (hereinafter, also referred to as CMC) solution (Daiichi Kogyo Seiyaku Co., Ltd.) were prepared. More specifically, 5 g of cytodex3 was suspended in 100 ml of PBS (SIGMA, R8537) and sterilized in an autoclave. On the other hand, the 2% CMC solution was prepared by adding 2 g of CMC in 100 ml of PBS while stirring with a stirrer bar, followed by sterilization in the autoclave.
Then, the E9 cells were subjected to trypsin-EDTA treatment to be removed from the wall of the vessel and the cells were suspended in DMEM to be 1.0×10^6 cells/ml. 0.2 g of cytodex3 was mixed with 1.0×10^7 cells/ml E9 cells. More specifically, 4 ml of 5% cytodex3 solution was added to 10 ml of 1.0×10^6 cells/ml cell suspension. […]
Under anesthesia with diethyl ether (WAKO, 055-01155), 3 ml of air was introduced under the skin on the back of a CDF1 mouse (Charles River Japan) using a 5-ml syringe with a 27 G needle to make an air pouch. […] To inactivate endogenous alkaline phosphatases, the plasma sample was treated in a hot water bath at 65° C. for 10 minutes and then the PLAP activity derived from E9 cells in the plasma was measured. […] Subsequently, while shielding light, the mixture was incubated at room temperature for 1 hour, followed by measurement of intensity of chemiluminescence using a plate reader (Perkin Elmer, ARVO).

Cl.Cl.Cl.Fc1ccc(-c2n[nH]cc2-c2ccc3ncc(-c4nccs4)n3c2)cc1 [test compound, 2-(6-[3-(4-fluorophenyl)-1H-4-pyrazolyl]imidazo[1,2-a]pyridin-3-yl)-1,3-thiazole trihydrochloride]
suppression of the PLAP activity activated by the IL4 stimulation as compared with the control group [1]: 94.1%
inhibition of transcriptional activity through STAT6 activation by IL4 stimulation [2]: inhibit transcriptional activity through STAT6 activation

B1: IL4: human IL4 (Calbiochem, 407635), used as stimulus of STAT6-PLAP reporter cells (protein, UniProt P05112 25-153, looked up)
Interleukin-4: HKCDITLQEIIKTLNSLTEQKTLCTELTVTDIFAASKNTTEKETFCRAATVLRQFYSHHEKDTRCLGATAQQFHRHKQLIRFLKRLDRNLWGLAGLNSCPVKEANQSTLENFLERLKTIMREKYSKCSS
PLAP activity in culture supernatant upon IL4 stimulation compared to non-stimulating condition [3]: higher PLAP activity was induced
PLAP activity secreted in blood upon IL4 stimulation [4]: remarkable increase of PLAP activity
